Experimental data from US20110294992A1, “METAL RESPONSIVE MRI-AGENTS” (The Regents of the University of California, priority 2010, published 2011).
“And” between values parts separate entries of the source, which are not always exact repeats. Equal entries are not always repeated.

How the values were obtained:
Assay type in all cases: physicochemical
[1] = Longitudinal relaxivity (r1) from T1 measurements at 60 MHz, absence of copper; settings: no copper; 60 MHz, 20 mM HEPES buffer, pH 7, 37° C., 0.2 mM Gd^3+
Description: (§1) The longitudinal relaxivity values for the CG contrast agents in the absence or presence of copper ions were determined using T1 measurements at 60 MHz. Studies were performed at 37° C. in 20 mM HEPES buffered to pH 7, and solutions of the purified CG sensors for relaxivity experiments contained 0.2 mM Gd^3+ as determined by ICP-OES. Spectroscopic data are collected in Table 1.
Nuclear magnetic relaxation dispersion (NMRD) experiments provide supporting evidence for this proposal (vide infra).

[2] = Longitudinal relaxivity (r1) turn-on response to Cu+ from T1 measurements at 60 MHz; settings: 1 equiv Cu^+, 20 mM HEPES buffer, pH 7, 37° C.
Description: as §1
Upon addition of up to 1 equiv of copper ions, the relaxivity values of the CG contrast agents increase, establishing the ability of these probes to sense copper using the MR modality (Table 1, FIG. 3). CG2, CG3, CG4, and CG5 respond to Cu^+ with relaxivity increases ranging from 92% to 360%. […] These values represent the largest relaxivity enhancements observed to date for metal-activated MR contrast agents and a ca. 9-fold improvement in copper ion response compared to CG1 (41% increase). The observed differences in turn-on Cu^+ responses for benzyl-substituted CG4 (290% increase) versus methyl-substituted CG5 (92% increase) with the same pyridyl-thioether receptor show the marked effects that small peripheral substitutions can have on relaxivity properties.

[3] = Electrochemical Cu2+/Cu+ reduction potentials of copper-bound CG complexes; settings: PBS buffer, pH 7.4
Description: CG6 is a unique member of the CG family that is equally responsive to both Cu^+ and Cu^2+. Addition of either Cu^+ or Cu^2+ to CG6 triggers a maximum 73% relaxivity turn-on from r1=2.2 mM^−1s^−1 to r1=3.8 mM^−1s^−1. […] On the other hand, copper-bound CG6, which responds to both Cu^+ and Cu^2+, has the least positive Cu^2+/Cu^+ reduction potential at +0.13 V.

[4] = Metal ion selectivity of relaxivity response (competing metal ions alone or with added copper); settings: relaxivity at 60 MHz, 20 mM HEPES, pH 7, 37° C.
Description: FIG. 6. Relaxivity responses of CG2 to various metal ions. White bars represent the addition of an excess of the appropriate metal ion (10 mM for Na^+, 2 mM for K^+, Mg^2+, and Ca^2+, and 0.2 mM for Fe^2+, Fe^3+, Cu^2+) to a 0.2 mM solution of CG2. Response to Zn^2+ was measured both at 0.2 mM Zn^2+ (Zn^2+1×) and 2 mM Zn^2+ (Zn^2+10×). Black bars represent the subsequent addition of 0.2 mM Cu^+ to the CG2 solution. Relaxivity measurements were acquired at 37° C. in 20 mM HEPES buffer, pH 7, at a proton Larmor frequency of 60 MHz.
The potential ability of this new family of CG sensors to sense bioavailable copper pools in either or both its predominant oxidation states represents a significant advance over the initial CG1 compound.

[5] = Relaxivity response to 1 equiv Cu+ in the presence of biologically relevant anions; settings: for increase in r1 in response to Cu^+ / turn-on response to Cu^+: pH 7
Description: FIG. 7. Relaxivity responses of CG2 to 1 equiv Cu^+ in the presence of biologically relevant anions. White bars represent CG2 relaxivities without Cu^+ in the presence of various anions. Black bars represent CG2 relaxivities with Cu^+ in the presence of different anions. Percentages in the black bars are the % increases r1. Relaxivity measurements with HEPES, citrate (0.13 mM), lactate (2.3 mM), and HCO3^− (10 mM, 25 mM), were acquired at 37° C. in 20 mM HEPES buffer, pH 7, at a proton Larmor frequency of 60 MHz. Relaxivity measurements with PBS were acquired under similar conditions using phosphate buffered saline, pH 7.4.
We also tested the copper responses of CG2-6 in the presence of physiologically relevant concentrations of common biological anions (FIG. 7). […] Carboxylate-type anions, however, can affect relaxivity responses of Cu^+-bound CG2. Addition of citrate (0.13 mM) and lactate (2.3 mM) to CG2 results in turn-on responses to Cu^+ of 220% and 71% respectively. Carbonate concentrations also affect the response of CG2; the effect of carbonate was tested at 10 mM NaHCO3 (intracellular)^104 and 25 mM NaHCO3 (extracellular)^108 and gave increases in r1 in response to Cu^+ of 190% and 140% respectively. Although the relaxivity increases observed in the presence of anions are still well within a range detectable by MRI,^109 current work is geared toward developing CG-sensors with more carboxylate functionalities incorporated into the ligand framework to minimize anion sensitivity.^55,110

SMILES: CCSCCN(CCSCC)Cc1cccc(CN2CCN(CC(=O)[O-])CCN(CC(=O)[O-])CCN(CC(=O)[O-])CC2)n1.[Gd+3] [CG2]
- r1 (no Cu) [1]: 1.5 mM⁻¹ s⁻¹
- r1 (1 equiv Cu) [2]: 6.9 mM^−1s^−1 and 6.9^b mM^−1s^−1
- Cu^2+/+ E1/2 [3]: 0.46 V vs. SHE
- redox specificity of relaxivity response (Cu^+ vs Cu^2+) [4]: give turn-on relaxivity increases with Cu^+ but do not respond to Cu^2+
- increase in r1 in response to Cu^+ ([5]; 10 mM NaHCO3 (intracellular) in 20 mM HEPES): 190%
- increase in r1 in response to Cu^+ ([5]; 25 mM NaHCO3 (extracellular) in 20 mM HEPES): 140%
- turn-on response to Cu^+ ([5]; citrate (0.13 mM) in 20 mM HEPES, 1 equiv Cu^+): 220%
- turn-on response to Cu^+ ([5]; lactate (2.3 mM) in 20 mM HEPES, 1 equiv Cu^+): 71%
- increase in relaxivity in response to Cu^+ ([5]; phosphate buffered saline (PBS, 10 mM phosphate), pH 7.4, 1 equiv Cu^+): 350%
